Results on 25 compounds are retold here after US20260242372A1, “NOVEL IMIDAZOPYRIDINE AND PYRAZOLOPYRIDINE SULFONAMIDE DERIVATIVES” (Hoffmann-La Roche Inc., priority 2022, published 2026).

Each structure is given as a SMILES string. pIC50: −log10 of the molar value.

Chain of human GPR17 short isoform (Q13304 29-367): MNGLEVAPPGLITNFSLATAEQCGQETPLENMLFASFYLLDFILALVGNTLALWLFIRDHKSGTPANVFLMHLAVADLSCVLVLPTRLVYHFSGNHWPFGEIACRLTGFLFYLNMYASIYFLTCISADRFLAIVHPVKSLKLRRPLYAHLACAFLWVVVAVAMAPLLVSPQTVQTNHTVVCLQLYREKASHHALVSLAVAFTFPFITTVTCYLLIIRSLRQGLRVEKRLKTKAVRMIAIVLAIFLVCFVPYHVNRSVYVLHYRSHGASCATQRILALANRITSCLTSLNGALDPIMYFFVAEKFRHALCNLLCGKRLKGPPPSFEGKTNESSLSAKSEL

This test has as its target human GPR17 short isoform (Homo sapiens, UniProt Q13304). The experiment in a line: GPR17 cAMP assay (hGPR17 cAMP, TR-FRET, antagonist mode). Type of test: cell-based. Conditions: CHO-K1 cells stably expressing human GPR17 short isoform; EC80 of agonist MDL29,951; forskolin 15 μM; 30 min at room temperature. Here is the method:
CHO-K1 cells stably expressing vector containing untagged human GPR17 short isoform (Roche) were cultured at 37° C./5% CO2 in DMEM (Dulbecco's Modified Eagle Medium): F-12 (1:1) supplemented with 10% foetal bovine serum and 400 μg/ml Geneticin.
Changes in intracellular cyclic adenosine monophosphate (cAMP) levels were quantified using the Nano-TRF Detection Assay kit (Roche Diagnostics, Cat. No. 05214386001). This assay allows for direct cAMP quantification in a homogeneous solution. CAMP is detected based on time-resolved fluorescence energy transfer (TR-FRET) and competitive binding of ruthenylated cAMP and endogenous cAMP to an anti-cAMP monoclonal antibody labeled with AlexaFluor-700. The Ruthenium complex serves as the FRET donor and transfers energy to AlexaFluor-700. The FRET signal is inversely proportional to the CAMP concentration.
CHO-GPR17S cells were detached with Accutase and resuspended in assay buffer consisting of Hank's Balanced Salt Solution (HBSS), 10 mM HEPES (4-(2-hydroxyethyl) piperazine-1-ethanesulfonic acid solution) and 0.1% bovine serum albumin (pH 7.4). The cells were seeded in black 384-well plates (Corning) at a density of 10′000 cells/20 μl assay buffer until the addition of compounds.
Test antagonist compounds were serially diluted in dimethyl sulfoxide (DMSO) and spotted in 384-well plates. The compounds were then diluted in HBSS buffer supplemented with an EC80 concentration of MDL29,951 (3-(2-Carboxy-4,6-dichloroindol-3-yl) propionic acid) (GPR17 agonist) plus 3-Isobutyl-1-methylxanthine (IBMX) (0.5 mM final concentration) and added to the cells at room temperature. Forskolin (15 μM final concentration) was added 5 minutes after the test compounds and the cells were incubated at room temperature for 30 minutes. The assay was stopped by adding cAMP detection mix (containing detergents for cell lysis) for 90 minutes at room temperature.
Cellular cAMP was measured using a Paradigm reader (Molecular Devices). The raw data was used to calculate the FRET signal based on the assay's P-factor as per cAMP kit instructions. The data was normalized to the maximal activity of a reference antagonist and dose response curves were fitted to the percent activity of the test compounds using a sigmoidal dose response model (Genedata Screener).
Turning to `COc1nc(OCC(F)F)c(F)cc1NS(=O)(=O)c1cnc2cc(Br)ccn12` [Example 1, 7-bromo-N-[6-(2,2-difluoroethoxy)-5-fluoro-2-methoxy-3-pyridyl]imidazo[1,2-a]pyridine-3-sulfonamide], the pIC50 (usually the IC50 on a negative log10 scale, so that one unit is a factor of ten) was 8.30.
In the case of `COc1nc(OCC(F)F)c(F)cc1NS(=O)(=O)c1cnc2cc(C)ccn12` [Example 2, N-[6-(2,2-difluoroethoxy)-5-fluoro-2-methoxy-3-pyridyl]-7-methyl-imidazo[1,2-a]pyridine-3-sulfonamide] it was 8.15.
To `COc1cc(CC#N)c(F)cc1NS(=O)(=O)c1cnc2cc(Br)ccn12` [Example 3, 7-bromo-N-[4-(cyanomethyl)-5-fluoro-2-methoxy-phenyl]imidazo[1,2-a]pyridine-3-sulfonamide] belongs 8.15; to `COc1nc(OCC(F)F)c(F)cc1NS(=O)(=O)c1cnc2c(OC)c(C)ccn12` [Example 4, N-[6-(2,2-difluoroethoxy)-5-fluoro-2-methoxy-3-pyridyl]-8-methoxy-7-methyl-imidazo[1,2-a]pyridine-3-sulfonamide], 8.10; to `COc1nc(OCC(F)F)c(F)cc1NS(=O)(=O)c1cnc2cc(OC(F)F)ccn12` [Example 5, N-[6-(2,2-difluoroethoxy)-5-fluoro-2-methoxy-3-pyridyl]-7-(difluoromethoxy)imidazo[1,2-a]pyridine-3-sulfonamide], 8.10.
`COc1nc(OCC(F)F)c(F)cc1NS(=O)(=O)c1cnc2c(F)c(Cl)ccn12` [Example 7, 7-chloro-N-[6-(2,2-difluoroethoxy)-5-fluoro-2-methoxy-3-pyridyl]-8-fluoro-imidazo[1,2-a]pyridine-3-sulfonamide] gave a pIC50 of 8.05.
For `COc1nc(OC(F)F)c(F)cc1NS(=O)(=O)c1cnc2cc(Br)ccn12` [Example 8, 7-bromo-N-[6-(difluoromethoxy)-5-fluoro-2-methoxy-3-pyridyl]imidazo[1,2-a]pyridine-3-sulfonamide], the pIC50 is 8.05.
In the case of `COc1nc(CCC(F)F)c(F)cc1NS(=O)(=O)c1cnc2cc(Cl)ccn12` [Example 9, 7-chloro-N-[6-(3,3-difluoropropyl)-5-fluoro-2-methoxy-3-pyridyl]imidazo[1,2-a]pyridine-3-sulfonamide] it was 7.96; in that of `COc1nc(NS(=O)(=O)c2cnc3cc(Br)ccn23)c(F)cc1CC(F)F` [Example 10, 7-bromo-N-[5-(2,2-difluoroethyl)-3-fluoro-6-methoxy-2-pyridyl]imidazo[1,2-a]pyridine-3-sulfonamide], 7.96.
Consider `COc1nc(CC(F)F)c(F)cc1NS(=O)(=O)c1cnc2cc(Cl)ccn12` [Example 11, 7-chloro-N-[6-(2,2-difluoroethyl)-5-fluoro-2-methoxy-3-pyridyl]imidazo[1,2-a]pyridine-3-sulfonamide], for which the pIC50 was 7.85.
For the compound `COc1nc(OCC(F)F)c(F)cc1NS(=O)(=O)c1cnc2c(OC)c(Cl)ccn12` [Example 12, 7-chloro-N-[6-(2,2-difluoroethoxy)-5-fluoro-2-methoxy-3-pyridyl]-8-methoxy-imidazo[1,2-a]pyridine-3-sulfonamide], the pIC50 was 7.80.
In the case of `COc1nc(OC(F)F)c(F)cc1NS(=O)(=O)c1cnc2cc(C)ccn12` [Example 13, N-[6-(difluoromethoxy)-5-fluoro-2-methoxy-3-pyridyl]-7-methyl-imidazo[1,2-a]pyridine-3-sulfonamide] it was 7.74; in that of `COc1nc(OCC(F)F)c(F)cc1NS(=O)(=O)c1cnc2cc(C(F)F)ccn12` [Example 14, N-[6-(2,2-difluoroethoxy)-5-fluoro-2-methoxy-3-pyridyl]-7-(difluoromethyl)imidazo[1,2-a]pyridine-3-sulfonamide], 7.74; in that of `COc1ccn2c(S(=O)(=O)Nc3cc(F)c(OCC(F)F)nc3OC)cnc2c1` [Example 15, N-[6-(2,2-difluoroethoxy)-5-fluoro-2-methoxy-3-pyridyl]-7-methoxy-imidazo[1,2-a]pyridine-3-sulfonamide], 7.74.
In the case of `COc1nc(OCC(F)F)c(F)cc1NS(=O)(=O)c1cnc2nc(C3CC3)ccn12` [Example 16, 7-cyclopropyl-N-[6-(2,2-difluoroethoxy)-5-fluoro-2-methoxy-3-pyridyl]imidazo[1,2-a]pyrimidine-3-sulfonamide], the pIC50 was 7.74.
As to `CCc1ccn2c(S(=O)(=O)Nc3cc(F)c(OCC(F)F)nc3OC)cnc2c1` [Example 17, N-[6-(2,2-difluoroethoxy)-5-fluoro-2-methoxy-3-pyridyl]-7-ethyl-imidazo[1,2-a]pyridine-3-sulfonamide], the pIC50 was 7.74.
In the case of `COc1cc(CC#N)c(F)cc1NS(=O)(=O)c1cnc2nc(C3CC3)ccn12` [Example 18, N-[4-(cyanomethyl)-5-fluoro-2-methoxy-phenyl]-7-cyclopropyl-imidazo[1,2-a]pyrimidine-3-sulfonamide] it was 7.72.
For the compound `COc1nc(OC(F)F)c(F)cc1NS(=O)(=O)c1cnc2c(OC)c(C)ccn12` [Example 19, N-[6-(difluoromethoxy)-5-fluoro-2-methoxy-3-pyridyl]-8-methoxy-7-methyl-imidazo[1,2-a]pyridine-3-sulfonamide], the pIC50 was 7.72.
For the compound `COc1cc(CC#N)c(F)cc1NS(=O)(=O)c1cnc2cc(C)ccn12` [Example 20, N-[4-(cyanomethyl)-5-fluoro-2-methoxy-phenyl]-7-methyl-imidazo[1,2-a]pyridine-3-sulfonamide], the pIC50 is 7.68.
Regarding `COc1nc(NS(=O)(=O)c2cnc3cc(Br)ccn23)c(F)cc1CC#N` [Example 21, 7-bromo-N-[5-(cyanomethyl)-3-fluoro-6-methoxy-2-pyridyl]imidazo[1,2-a]pyridine-3-sulfonamide], the pIC50 was 7.68.
With `COc1nc(CC#N)c(F)cc1NS(=O)(=O)c1cnc2cc(Cl)ccn12` [Example 22, 7-chloro-N-[6-(cyanomethyl)-5-fluoro-2-methoxy-3-pyridyl]imidazo[1,2-a]pyridine-3-sulfonamide], the pIC50 is 7.64.
In turn, `COc1nc(OCC(F)F)c(F)cc1NS(=O)(=O)c1cnc2n1CCC(C)C2` (stereo not shown) [Example 23, N-[6-(2,2-difluoroethoxy)-5-fluoro-2-methoxy-3-pyridyl]-7-methyl-5,6,7,8-tetrahydroimidazo[1,2-a]pyridine-3-sulfonamide] had a pIC50 of 7.64.
Consider `COc1nc(NS(=O)(=O)c2cnc3cc(Cl)ccn23)c(F)cc1CC(F)F` [Example 24, 7-chloro-N-[5-(2,2-difluoroethyl)-3-fluoro-6-methoxy-2-pyridyl]imidazo[1,2-a]pyridine-3-sulfonamide], for which the pIC50 is 7.64.
In turn, `COc1nc(C2CC2)c(F)cc1NS(=O)(=O)c1cnc2cc(Cl)ccn12` [Example 25, 7-chloro-N-(6-cyclopropyl-5-fluoro-2-methoxy-3-pyridyl)imidazo[1,2-a]pyridine-3-sulfonamide] showed a pIC50 of 7.64.
Compound `COc1nc(NS(=O)(=O)c2cnc3cc(Br)ccn23)c(F)cc1OC(F)F` [Example 26, 7-bromo-N-[5-(difluoromethoxy)-3-fluoro-6-methoxy-2-pyridyl]imidazo[1,2-a]pyridine-3-sulfonamide] showed a pIC50 of 7.52.
